Earlier results on one molecule are cited in patent US20230104358A1 (priority 2021, published 2023).

Targets include serotonin 5HT1D receptor (Homo sapiens, UniProt P28221); dopamine D1 (Homo sapiens, UniProt P21728); β1 adrenergic receptor (Homo sapiens, UniProt P08588); β2 adrenergic receptor (Homo sapiens, UniProt P07550).
In data set [1] the target is dopamine Type 2 (D2) receptor (Homo sapiens, UniProt P14416).
In a further data set the target is T1, serotonin 5HT1C receptor (Homo sapiens, UniProt P28335).
T1 sequence (P28335 33-458): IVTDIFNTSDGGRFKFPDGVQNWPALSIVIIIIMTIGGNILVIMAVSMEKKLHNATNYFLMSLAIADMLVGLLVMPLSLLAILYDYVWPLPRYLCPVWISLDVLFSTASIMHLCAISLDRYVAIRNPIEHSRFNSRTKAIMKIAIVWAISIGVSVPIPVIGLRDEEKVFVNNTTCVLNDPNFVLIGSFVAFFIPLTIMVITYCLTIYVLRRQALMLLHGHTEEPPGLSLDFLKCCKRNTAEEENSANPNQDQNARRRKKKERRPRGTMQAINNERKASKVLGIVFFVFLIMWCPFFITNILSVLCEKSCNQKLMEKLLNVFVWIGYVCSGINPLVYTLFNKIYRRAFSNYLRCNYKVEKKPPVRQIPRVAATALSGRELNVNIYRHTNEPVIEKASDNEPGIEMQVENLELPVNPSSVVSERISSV

Another data set concerns the target T2, serotonin 5HT1A receptor (Homo sapiens, UniProt P08908).
T2 sequence (P08908 1-422): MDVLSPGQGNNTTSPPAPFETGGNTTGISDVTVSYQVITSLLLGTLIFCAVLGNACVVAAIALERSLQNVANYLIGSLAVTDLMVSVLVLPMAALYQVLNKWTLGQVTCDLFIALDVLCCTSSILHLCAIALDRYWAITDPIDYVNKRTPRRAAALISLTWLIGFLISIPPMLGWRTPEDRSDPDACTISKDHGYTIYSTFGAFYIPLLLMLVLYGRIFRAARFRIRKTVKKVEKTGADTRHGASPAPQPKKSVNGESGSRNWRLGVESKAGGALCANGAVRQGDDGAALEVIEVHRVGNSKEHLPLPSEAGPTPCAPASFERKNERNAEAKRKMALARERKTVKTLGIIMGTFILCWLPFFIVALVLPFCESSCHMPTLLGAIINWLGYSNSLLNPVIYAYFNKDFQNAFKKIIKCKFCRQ

For data set [2], the system named is haloperidol-sensitive sigma site.

dopamine Type 2 (D2) receptor, sequence (P14416 whole entry): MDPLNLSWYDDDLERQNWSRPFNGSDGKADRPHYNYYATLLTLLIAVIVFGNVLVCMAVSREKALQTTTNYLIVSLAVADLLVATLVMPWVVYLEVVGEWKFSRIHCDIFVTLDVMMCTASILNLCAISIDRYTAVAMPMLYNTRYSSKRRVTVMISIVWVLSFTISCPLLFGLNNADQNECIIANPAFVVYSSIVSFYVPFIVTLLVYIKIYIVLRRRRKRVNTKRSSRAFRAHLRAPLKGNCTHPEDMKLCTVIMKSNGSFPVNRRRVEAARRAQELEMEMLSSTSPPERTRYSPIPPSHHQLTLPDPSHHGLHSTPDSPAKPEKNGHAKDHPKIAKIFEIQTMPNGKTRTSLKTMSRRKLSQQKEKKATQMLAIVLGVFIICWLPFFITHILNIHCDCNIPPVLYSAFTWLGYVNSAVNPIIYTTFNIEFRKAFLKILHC
β2 adrenergic receptor, sequence (P07550 whole entry): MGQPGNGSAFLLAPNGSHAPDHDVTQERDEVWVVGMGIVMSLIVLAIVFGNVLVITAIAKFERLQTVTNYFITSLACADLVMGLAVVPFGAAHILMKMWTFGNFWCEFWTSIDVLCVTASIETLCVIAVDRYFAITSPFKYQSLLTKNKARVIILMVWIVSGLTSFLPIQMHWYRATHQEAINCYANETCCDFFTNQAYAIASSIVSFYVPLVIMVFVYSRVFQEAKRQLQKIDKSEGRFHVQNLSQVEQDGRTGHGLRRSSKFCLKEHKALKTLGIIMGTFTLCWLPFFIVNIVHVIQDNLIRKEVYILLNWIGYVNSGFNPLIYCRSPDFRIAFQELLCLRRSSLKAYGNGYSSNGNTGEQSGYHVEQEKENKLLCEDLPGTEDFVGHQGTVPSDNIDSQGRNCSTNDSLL
β1 adrenergic receptor, sequence (P08588 whole entry): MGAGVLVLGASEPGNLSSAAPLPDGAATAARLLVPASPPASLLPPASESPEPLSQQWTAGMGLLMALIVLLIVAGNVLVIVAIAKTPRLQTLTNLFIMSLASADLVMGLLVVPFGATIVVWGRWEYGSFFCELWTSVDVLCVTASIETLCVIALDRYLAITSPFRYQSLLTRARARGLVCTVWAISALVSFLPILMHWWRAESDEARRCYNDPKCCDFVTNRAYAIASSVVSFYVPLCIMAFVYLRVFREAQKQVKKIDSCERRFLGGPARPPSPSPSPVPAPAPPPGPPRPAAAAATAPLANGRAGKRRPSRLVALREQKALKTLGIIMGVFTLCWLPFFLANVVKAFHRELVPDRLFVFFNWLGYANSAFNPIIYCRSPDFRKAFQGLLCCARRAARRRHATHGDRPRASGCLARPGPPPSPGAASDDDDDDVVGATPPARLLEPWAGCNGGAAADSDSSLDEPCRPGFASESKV
serotonin 5HT1D receptor, sequence (P28221 whole entry): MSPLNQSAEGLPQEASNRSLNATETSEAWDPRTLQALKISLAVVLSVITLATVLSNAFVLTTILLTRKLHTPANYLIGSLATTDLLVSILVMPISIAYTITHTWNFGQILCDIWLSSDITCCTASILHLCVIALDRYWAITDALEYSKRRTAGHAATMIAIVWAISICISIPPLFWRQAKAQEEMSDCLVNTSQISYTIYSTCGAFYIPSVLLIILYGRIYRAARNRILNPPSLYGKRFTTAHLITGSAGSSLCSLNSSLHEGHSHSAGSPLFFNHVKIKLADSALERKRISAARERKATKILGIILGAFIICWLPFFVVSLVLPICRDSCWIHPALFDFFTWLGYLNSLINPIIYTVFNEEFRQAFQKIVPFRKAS
dopamine D1, sequence (P21728 whole entry): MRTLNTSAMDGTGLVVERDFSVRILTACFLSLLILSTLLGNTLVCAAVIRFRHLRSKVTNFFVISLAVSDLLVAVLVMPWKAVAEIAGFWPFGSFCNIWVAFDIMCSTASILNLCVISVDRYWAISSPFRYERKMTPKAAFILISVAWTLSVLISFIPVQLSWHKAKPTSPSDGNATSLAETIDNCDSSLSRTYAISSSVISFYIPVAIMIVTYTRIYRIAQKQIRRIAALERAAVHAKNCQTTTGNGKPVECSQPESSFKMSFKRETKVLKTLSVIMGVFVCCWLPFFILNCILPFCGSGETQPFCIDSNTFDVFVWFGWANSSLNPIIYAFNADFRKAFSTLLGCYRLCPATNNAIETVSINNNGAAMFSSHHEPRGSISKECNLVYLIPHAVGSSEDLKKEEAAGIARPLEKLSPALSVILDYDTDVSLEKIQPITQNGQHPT

As for `Cc1nc2n(c(=O)c1CCN1CCC(c3noc4cc(F)ccc34)CC1)CCCC2` [Risperidone], the “affinity for dopamine Type 2 (D2) receptor” value in data set [1] was “high affinity”. The “affinity for α1 adrenergic receptor” value with α1 adrenergic receptor was “high affinity”. Also, the “affinity for α2 adrenergic receptor” value with α2 adrenergic receptor is given as “high affinity”. At serotonin 5HT1C receptor, the “affinity for serotonin 5HT1C receptor” value is given as “low to moderate affinity”. At serotonin 5HT1D receptor, the “affinity for serotonin 5HT1D receptor” value is given as “low to moderate affinity”. At serotonin 5HT1A receptor, the “affinity for serotonin 5HT1A receptor” value is reported as “low to moderate affinity”. For the same molecule, at dopamine D1, the “affinity for dopamine D1” value was “weak affinity”. In data set [2], the “affinity for haloperidol-sensitive sigma site” value is listed as “weak affinity”. The “affinity for β1 adrenergic receptor” value at β1 adrenergic receptor is listed as “no affinity”. The “affinity for β2 adrenergic receptor” value on β2 adrenergic receptor is on record as “no affinity”.
